pEC50, pIC50: −log10 of the molar value. Like-named read-outs stand apart in the source and are kept apart here.
Assays:
[1] = target: T1, PfHT (Plasmodium falciparum, UniProt O97467); assay: Heterologous FRET glucose sensor screening assay in PfHT-FLIP HEK293 cells; type: cell-based; settings: for inhibition at 10 µM: HEK293, FRET ratio, vehicle 100%, 200 μM CB 0%
T1 construct: endogenous in cells; host or cells: P. falciparum 3D7 parasites freed from human erythrocytes
T1 sequence (O97467 1-504): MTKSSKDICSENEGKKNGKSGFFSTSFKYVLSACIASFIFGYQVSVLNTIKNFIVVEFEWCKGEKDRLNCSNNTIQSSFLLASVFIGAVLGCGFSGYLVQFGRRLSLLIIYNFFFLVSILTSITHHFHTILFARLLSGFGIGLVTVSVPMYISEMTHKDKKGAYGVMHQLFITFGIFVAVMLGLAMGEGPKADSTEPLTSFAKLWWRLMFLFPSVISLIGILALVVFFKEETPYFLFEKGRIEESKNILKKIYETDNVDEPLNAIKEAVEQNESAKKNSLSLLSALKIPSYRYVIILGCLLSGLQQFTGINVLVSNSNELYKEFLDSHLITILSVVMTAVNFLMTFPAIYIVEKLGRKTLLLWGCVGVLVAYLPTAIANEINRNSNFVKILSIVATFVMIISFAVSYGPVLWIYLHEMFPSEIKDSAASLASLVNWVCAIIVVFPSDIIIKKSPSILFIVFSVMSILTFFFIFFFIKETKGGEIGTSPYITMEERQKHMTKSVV
Source text: HEK293 cells were transfected with pcDNA3.1 FLII12Pglu-700uDelta6 (Addgene, Cambridge, Mass.), containing the FRET glucose sensor (HEK293-FLIP) using Optifect Reagent (Life Technologies, Waltham, Mass.) according to manufacturer's specifications. Cells that stably integrated the gene were selected using G418 (Sigma Aldrich, St. Louis, Mo.) and highest expressers were identified using Fluorescence Activated Cell Sorting (FACS). These cells were then stably transfected with PfHT, human GLUT1 (hGLUT1), human GLUT2 (hGLUT2), human GLUT3 (hGLUT3) or human GLUT4 (hGLUT4) DNA in the pcDNA 3.1(−) hygro plasmid (Life Technologies). Single clones were selected by comparing their ability to transport radiolabeled glucose. In all cell lines except for HEK293 overexpressing hGLUT1 cells, native hGLUT1 was knocked down using shRNA.
96-well plates were pretreated with 25 μg/ml Polyethylenimine (PEI, 750 kDa, Sigma Aldrich) solution containing 150 mM NaCl to maintain cell adhesion during washing steps. After 20 min incubation at room temperature (RT), PEI was aspirated and wells were air dried for 5 min. PfHT-FLIP cells were plated 48 h prior to the assay in black opaque 96-well plates (Greiner Bio-One, Monroe, N.C.), which were previously treated with PEI, at 30,000 cells/well. After cell plating, plates were then left in the sterile hood at RT for 45 min before transfer to the incubator to reduce edge effects. Compound screening was performed using the integrated and automated screening system (Beckman Coulter, Brea, Calif.) at the Washington University High Throughput Screening Core. SAMI EX software (Beckman Coulter) was used to design and execute the screening protocol. The Malaria Box (Medicines for Malaria Venture, Geneva, Switzerland) compound library was prediluted in glucose-free HEPES buffered saline solution (HBSS) (146 mM NaCl, 4.7 mM KCl, 0.6 mM MgSO4, 1.6 mM NaHCO3, 0.13 mM NaH2PO4, 2.5 mM CaCl2, 20 mM HEPES, pH 7.3) using the BiomekFX liquid handler (Beckman Coulter). A 1:100 dilution of 1 mM stock solution was prepared for 10 μM final concentration.
To initiate the screening assay, cells were washed twice with 150 μl HBSS per well using the ELx405 Plate Washer (Biotek, Winooski, Vt.). Cells were starved in HBSS for 30 min at RT, followed by aspiration of the HBSS from cell plates using the ELx405 Plate Washer. Cells were treated with 45 μl of diluted compound using the BiomekFX (with 3 replicate cell plates for each library plate) and incubated for 6 min at RT. To initiate the uptake, 5 μl of 100 mM glucose was added to the wells (final concentration 10 mM) using a Multidrop384 dispenser (Thermo Fisher Scientific, Waltham, Mass.). After incubation at RT for 120 min, fluorescence was measured using the 2102 EnVision Multilabel Plate Reader (Perkin Elmer, Waltham, Mass.) at excitation 436 nm (CFP) and emissions 485 nm (CFP) and 535 nm (YFP).
The Malaria Box was screened at 10 μM drug concentrations in triplicate and selected hits that decreased the FRET ratio by more than 30% with vehicle-treated cells set to 100% and cells treated with 200 μM CB set to 0%. Since fluorescent compounds have the potential to generate false positive hits, the FRET ratio of compounds without cells present was determined. After false positive elimination, 5 compounds were identified as primary hits. Hit confirmation was ascertained by determining the IC50 for glucose uptake into isolated P. falciparum parasites from blood culture using radiolabeled D-glucose. […] Compound MMV020548 was included for comparison as it was previously identified from the same library. The similar IC50 observed in the freed parasite glucose uptake assay and in vitro growth inhibition assay for MMV009085, was consistent with the interpretation that this compound is acting through PfHT blockage to inhibit parasite growth (Table 3) although, alternative targets in the parasite might be inhibited as well.

[2] = target: T1, PfHT; assay: Uptake of [14C]-2-DOG into isolated (freed) P. falciparum parasites; type: cell-based
Protocol: P. falciparum strain 3D7 was cultured in 100 mm tissue culture dishes (Techno Plastic Products, Trasadingen Switzerland) in a 2% suspension of human erythrocytes and RPMI 1640 medium until reaching >5% parasitemia. Cells were pelleted via centrifugation and resuspended in RPMI. To determine the uptake of radiolabeled glucose into the parasite, it was isolated from the erythrocyte while removing uninfected erythrocytes. Uptake of [^14C]-2-DOG into isolated parasites was determined at RT using the methods described previously(19). Test compounds were added 5 min prior to the addition of [^14C]-2-DOG (0.2 μCi/ml final concentration). Uptake was quenched after 2 min Data were fit by nonlinear regression analysis using GraphPad Prism software. Uptake of [^3H]-2-DOG into HEK293-FLIP cell lines was measured in HEPES-buffered saline at RT for 4 min Data were fit by nonlinear regression analysis using GraphPad Prism software.

[3] = test system: P. falciparum strain 3D7; assay: P. falciparum growth inhibition assay (PicoGreen DNA content); type: cell-based; settings: Plasmodium falciparum; for pEC50: intraerythrocytic forms, strain 3D7
Protocol: P. falciparum strain 3D7 was obtained from the Malaria Research and Reference Reagent Resource Center (MR4). P. falciparum parasites were cultured in a 2% suspension of human erythrocytes and RPMI 1640 (Sigma Aldrich) medium supplemented with 27 mM sodium bicarbonate, 11 mM glucose, 5 mM HEPES, 1 mM sodium pyruvate, 0.37 mM hypoxanthine, 0.01 mM thymidine, 10 μg/ml gentamicin, and 0.5% Albumax (Gibco, Waltham, Mass.) at 37° C., 5% O2/5% CO2/90% N2 atmosphere.
Asynchronous P. falciparum cultures were diluted to 1% parasitemia and were treated with compounds at concentrations ranging from 9.8 nM-20 μM. Growth inhibition assays were performed in 100 μl cultures in opaque 96-well plates. Parasite growth was quantified after 3 days by measuring DNA content using PicoGreen (Life Technologies). Fluorescence was measured by a FLUOstar Omega microplate reader (BMG Labtech, Cary, N.C.) at 485 nm excitation and 528 nm emission. IC50 values were calculated by nonlinear regression analysis using GraphPad Prism software.

[4] = target: T1, PfHT; settings: cited from earlier work
[5] = test system: P. falciparum; settings: values provided with the malaria box; read-out: EC50 for P. falciparum growth inhibition Malaria box; cited from earlier work
[6] = target: T1, PfHT; assay: Glucose uptake into PfHT overexpressing L. mexicana parasites (Ortiz et al.); type: cell-based
[7] = test system: hGLUTs 1-4; assay: Uptake of [3H]-2-DOG by HEK293 cells overexpressing PfHT or hGLUTs 1-4; type: cell-based, human
Protocol: To establish selectivity of these hits for PfHT over human orthologues, the inhibition of GLUTs 1, 2, 3 and 4 was cross-validated by the confirmed hits. […] The inhibitory effect of the five confirmed hits was determined on all four human class I GLUTs at the IC50 concentration for PfHT-mediated glucose uptake inhibition.

[8] = test system: human insulin-responsive glucose transporter GLUT4; settings: cited from earlier work
[9] = test system: parasites; settings: cited from earlier work
[10] = IC50 PfHT in parasites, Table 1
[11] = IC50 for glucose uptake in freed parasites, from dose-response curves of FIG. 4
[12] = 72 h, P. falciparum strain 3D7, growth after 3 days, read-out: IC50 3D7 in vitro
[13] = PfHT overexpressing L. mexicana, read-out: IC50 PfHT (determined by Ortiz et al. (15) in L. mexicana)

Row | Structure (SMILES) | inhibition at 10 µM [1] | pIC50 [2, 10] | pIC50 [2, 11] | pIC50 [3, 12] | pEC50 [3] | glucose uptake versus proline transport in PfHT-overexpressing Leishmania mexicana [4] | pEC50 [5] | further results
1 | CC(C)(C)C(=O)Nc1ccc(C(=O)Nc2cccc(-c3nc4ccccc4[nH]3)c2)cc1 [MMV665879] | 49% | 5.18 | 5.08 | 6.41 | 6.41 | selectively inhibit glucose uptake, but not proline transport |  | pIC50 [4, 13]: 5.57
2 | O=C1c2ccc3c4c(ccc(c24)C(=O)N1CCCCO)C(=O)N(CCCCO)C3=O [MMV009085] | 87% | 5.74 |  | 6.01 | 6.01 | selectively inhibit glucose uptake, but not proline transport | 6.10 | difference in potency by the two assays (parasite growth vs L. mexicana PfHT overexpression) [6]: 20 fold; pIC50 ([2]; IC50 for PfHT-mediated glucose uptake): 5.59; selectivity for PfHT over human orthologues (IC50s for glucose uptake inhibition) [7]: more than 10 fold; pIC50 ([3]; 3D7, read-out: IC50 malaria parasite growth assay): 6.00; pIC50 ([4]; read-out: IC50 L. mexicana PfHT overexpression assay): 7.29
3 | CN(C)c1ccc(C(O)(c2ccc(N(C)C)cc2)c2ccc(N(C)C)cc2)cc1 [MMV665941] | 31% | 4.88 | 4.71 | 7.59 | 7.59 |  | 6.59 | inhibition of glucose uptake at the highest concentration tested ([2]; FIG. 4): only partial inhibition
4 | Cc1cccc(C)c1OCC(=O)N[C@@H](Cc1ccccc1)[C@@H](O)C[C@H](Cc1ccccc1)NC(=O)[C@H](C(C)C)N1CCCNC1=O [lopinavir] |  |  |  |  |  |  |  | FRET ratio with addition of D-glucose ([1]; PfHT-FLIP cells, FIG. 2a): decreased FRET ratio; selectivity GLUT4 over PfHT [8]: higher selectivity for the human insulin-responsive glucose transporter GLUT4 over PfHT; pIC50 [9]: 4.80
5 | CCN1CCN(Cc2ccc(NC(=O)c3cc4ccc5cccnc5c4[nH]3)cc2)CC1 [MMV020548] | 21% | 4.67 | 4.81 | 6.94 | 6.94 | selectively inhibit glucose uptake, but not proline transport | 6.44 | pIC50 [4, 13]: 5.46
6 | C=C1[C@@H](C)[C@H]2[C@H](Cc3ccccc3)NC(=O)[C@]23OC(=O)/C=C/[C@H](O)CCC[C@@H](C)C/C=C/[C@H]3[C@@H]1O [CB, cytochalasin B, reference compound] |  |  |  |  |  |  |  | maximal decrease in FRET ratio ([1]; 50 μM, PfHT-FLIP cells): 75%; inhibition of D-glucose uptake ([1]; 200 μM, PfHT-FLIP cells): complete inhibition
7 | COc1cc(C(=O)Nc2ccc(-c3nc4ccccc4[nH]3)cc2)cc(OC)c1OC [MMV665898] | 64% | 5.21 | 5.28 | 6.31 | 6.31 |  | 5.91 | 
8 | Cc1ccc2nc(C)cc(Nc3cccc(C(F)(F)F)c3)c2c1 [MMV000326] | 49% | 3.86 | 3.54 | 6.46 | 6.46 |  | 5.93 | 
